Laboratory results from ChEMBL document CHEMBL1156896, “Synthesis and structure-activity relationships of a series of 3-aryl-4-isoxazolecarboxamides as a new class of TGR5 agonists” (Bioorg Med Chem Lett, 2010).

Tests used:
[1] = Permeability in artificial membrane assay; type: ADME, cell membranes; conditions: PAMPA; read-out: permeability
in vitro = conditions: dog, MDCK

Papp [1]: 31 ×10⁻⁶ cm/s
Papp (in vitro): 44.8 ×10⁻⁶ cm/s
SMILES: CCN(C(=O)c1c(-c2ccccc2Cl)noc1C)c1cccc(Cl)c1
